The source of these data is patent US20100076194A1, “SUBSTITUTED 3-AMINO-1-OXO OR THIOXO-1,2,5,6,7,8-HEXAHYDRO-2,7-NAPHTHYRIDINE-4-CARBONITRILES ARE SELECTIVE ALPHA 2B ANTAGONISTS” (ALLERGAN, INC., priority 2008, published 2010).

Like-named read-outs stand apart in the source and are kept apart here.

One assay concerns the target T1, mouse alpha2B receptor (Mus musculus, UniProt P30545).
T1 construct: expressed in transfected cells; host or cells: HEK 293
T1 sequence (P30545 1-453): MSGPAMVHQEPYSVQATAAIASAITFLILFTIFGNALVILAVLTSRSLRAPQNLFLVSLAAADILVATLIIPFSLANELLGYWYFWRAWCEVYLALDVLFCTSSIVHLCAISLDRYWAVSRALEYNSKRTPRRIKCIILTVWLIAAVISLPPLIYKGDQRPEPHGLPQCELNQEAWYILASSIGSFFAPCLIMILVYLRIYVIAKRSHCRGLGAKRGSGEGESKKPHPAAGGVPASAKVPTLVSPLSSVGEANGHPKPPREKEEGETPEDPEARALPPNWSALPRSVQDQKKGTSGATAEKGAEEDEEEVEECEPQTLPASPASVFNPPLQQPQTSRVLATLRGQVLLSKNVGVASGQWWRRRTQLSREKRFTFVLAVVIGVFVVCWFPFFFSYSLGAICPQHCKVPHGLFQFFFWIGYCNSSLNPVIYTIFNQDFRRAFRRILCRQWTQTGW
Description: FLIPR Ca+2 influx antagonist assay, alpha 2B. The class given is cell-based. Particulars: for % Antagonism Alpha 2B: value in parentheses. The procedure: (§1) HEK 293 cells stably expressing the human alpha 2A receptor and the chimeric G protein Gqi5, the mouse alpha2B receptor and the G protein G16, and the human alpha 2C receptor and the chimeric G protein Gqi5 are plated in poly-D-lysine coated 96-well plates at 50,000-75,000 cells per well and grown overnight in DMEM supplemented with 10% fetal bovine serum. For FLIPR (fluorometric image plate reader) evaluation, cells are washed twice with HBSS/HEPES Buffer (1× Hanks Buffered Salt Solution, 20 mM HEPES, pH 7.4) prior to the addition of Fluo-4-AM (4 uM Fluo-4-AM, 0.04% pluronic acid in HBSS/HEPES Buffer), a calcium-sensitive dye. Cells are loaded with dye for 60 minutes at 37° C., then washed 4 times with HBSS/HEPES Buffer. For both the agonist and antagonist assay, the test compounds are tested between 0.64 nM-10,000 nM.
(§2) However, the antagonist blocks the transient calcium signal of the standard agonist norepinephrine in a dose-dependent manner. The residual norepinephrine peak height is compared to the non-antagonized norepinephrine peak height for the determination of % antagonism.

Another assay deals with T2, human alpha 2A receptor (Homo sapiens, UniProt P08913).
T2 construct: expressed in transfected cells; host or cells: HEK 293
T2 sequence (P08913 1-465): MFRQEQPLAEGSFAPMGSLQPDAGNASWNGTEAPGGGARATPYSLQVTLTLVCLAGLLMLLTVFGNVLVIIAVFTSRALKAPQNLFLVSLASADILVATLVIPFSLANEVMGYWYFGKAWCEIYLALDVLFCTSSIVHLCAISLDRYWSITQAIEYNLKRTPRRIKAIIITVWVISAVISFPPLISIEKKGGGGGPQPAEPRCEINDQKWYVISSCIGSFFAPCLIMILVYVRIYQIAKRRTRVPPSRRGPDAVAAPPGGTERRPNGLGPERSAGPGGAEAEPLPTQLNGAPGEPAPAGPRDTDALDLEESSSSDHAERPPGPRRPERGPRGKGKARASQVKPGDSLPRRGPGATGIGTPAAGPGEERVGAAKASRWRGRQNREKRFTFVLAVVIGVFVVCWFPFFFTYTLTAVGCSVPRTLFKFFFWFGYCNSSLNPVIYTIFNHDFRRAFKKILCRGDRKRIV
Description: FLIPR Ca+2 influx antagonist assay, alpha 2A. In kind it is cell-based. Conditions: HEK 293 cells, Gqi5; for IC50: antagonism of norepinephrine calcium signal; for % Antagonism Alpha 2A: value in parentheses. The procedure: as §1, §2

Assay [1] deals with T3, Alpha 1B adrenergic receptor (Homo sapiens, UniProt P35368).
T3 sequence (P35368 1-520): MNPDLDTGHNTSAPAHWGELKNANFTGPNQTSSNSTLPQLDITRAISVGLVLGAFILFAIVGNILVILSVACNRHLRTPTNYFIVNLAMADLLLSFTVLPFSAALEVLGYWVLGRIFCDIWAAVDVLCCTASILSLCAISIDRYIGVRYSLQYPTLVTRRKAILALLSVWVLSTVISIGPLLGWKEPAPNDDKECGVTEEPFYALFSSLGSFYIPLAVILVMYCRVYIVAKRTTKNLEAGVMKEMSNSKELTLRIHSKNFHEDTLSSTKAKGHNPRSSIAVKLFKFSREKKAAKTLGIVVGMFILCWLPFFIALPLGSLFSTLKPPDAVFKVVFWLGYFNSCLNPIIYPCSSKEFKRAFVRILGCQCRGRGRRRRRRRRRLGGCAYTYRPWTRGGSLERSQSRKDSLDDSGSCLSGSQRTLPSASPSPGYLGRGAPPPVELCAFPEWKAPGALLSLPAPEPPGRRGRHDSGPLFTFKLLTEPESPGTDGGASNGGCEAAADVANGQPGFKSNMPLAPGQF
The assay can be described thus: FLIPR Ca+2 influx antagonist assay, alpha 1B. The class given is cell-based. Conditions: for % Antagonism Alpha 1B: value in parentheses, vs norepinephrine peak height.

For another assay, the target named is T4, human alpha 2C receptor (Homo sapiens, UniProt P18825).
T4 construct: expressed in transfected cells; host or cells: HEK 293
T4 sequence (P18825 1-462): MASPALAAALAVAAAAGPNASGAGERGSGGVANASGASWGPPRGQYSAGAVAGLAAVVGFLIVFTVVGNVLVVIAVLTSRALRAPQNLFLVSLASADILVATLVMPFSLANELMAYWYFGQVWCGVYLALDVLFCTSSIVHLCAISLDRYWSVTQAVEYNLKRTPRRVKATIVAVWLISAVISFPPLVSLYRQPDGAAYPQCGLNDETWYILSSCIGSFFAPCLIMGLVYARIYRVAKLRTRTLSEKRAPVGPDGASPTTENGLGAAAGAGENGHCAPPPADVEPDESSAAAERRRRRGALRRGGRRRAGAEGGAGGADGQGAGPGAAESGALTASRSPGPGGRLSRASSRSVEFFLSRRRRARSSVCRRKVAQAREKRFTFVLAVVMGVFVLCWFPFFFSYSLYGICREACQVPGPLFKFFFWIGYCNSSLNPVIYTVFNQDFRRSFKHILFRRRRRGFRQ
Description: FLIPR Ca+2 influx antagonist assay, alpha 2C. The class given is cell-based. Particulars: HEK 293 cells, Gqi5; for % Antagonism Alpha 2C: value in parentheses. The procedure: as §1, §2

A further assay relates to mechanical allodynia. The assay can be described thus: Chung rat nerve ligation model of neuropathic pain (mechanical allodynia). In kind it is in vivo. Conditions: co-administered IP at 100 ug/kg each, 30 minutes post drug, FIG. 1A. The method, then:
The Chung model is a surgical model of neuropathic pain in rats. The pain state is generated by tight ligation of the L5 and L6 spinal nerves on one side of the rat. The surgical procedure results in a long-lasting mechanical allodynia in the affected foot. Mechanical allodynia is measured using von Frey filaments, where the investigator stimulates the plantar surface of the affected foot. Different sized filaments generate a different force. A painful response is signified by withdrawal of the paw.
Mechanical allodynia is measured at 30 minutes post drug and is reported as the percentage response to the baseline reading taken pre-drug administration.
The lack of allodynial reversal in these rats is also a measure of antagonist ability to block a response.

The target of assay [2] is T5, Alpha 1A adrenergic receptor (Homo sapiens, UniProt P35348).
T5 sequence (P35348 1-466): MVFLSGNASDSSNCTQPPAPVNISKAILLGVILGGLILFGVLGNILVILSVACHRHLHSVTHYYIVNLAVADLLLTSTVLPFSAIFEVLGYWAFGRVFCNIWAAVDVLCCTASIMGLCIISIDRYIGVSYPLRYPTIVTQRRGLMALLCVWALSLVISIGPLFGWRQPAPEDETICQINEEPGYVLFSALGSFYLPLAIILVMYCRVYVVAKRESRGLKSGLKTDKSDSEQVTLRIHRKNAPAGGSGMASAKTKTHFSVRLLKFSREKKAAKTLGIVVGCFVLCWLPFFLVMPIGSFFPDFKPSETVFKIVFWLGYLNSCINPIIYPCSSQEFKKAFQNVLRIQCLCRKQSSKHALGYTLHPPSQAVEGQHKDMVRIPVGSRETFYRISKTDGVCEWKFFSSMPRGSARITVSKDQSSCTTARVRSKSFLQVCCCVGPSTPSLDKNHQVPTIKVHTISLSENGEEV
The assay can be described thus: FLIPR Ca+2 influx antagonist assay, alpha 1A. Conditions: for % Antagonism Alpha 1A: value in parentheses, vs norepinephrine peak height. In kind it is cell-based.

Where [3] appears, read: HEK 293 cells, G16, antagonism of norepinephrine calcium signal, read-out: IC50 Alpha 2B.

Turning to `Cn1c(N)c(C#N)c2c(c1=S)CNCC2` [Example 4, 3-amino-2-methyl-1-thioxo-1,2,5,6,7,8-hexahydro-2,7-naphthyridine-4-carbonitrile], the IC50 on mouse alpha2B receptor (setting [3]) was determined as 342 nM. Besides, the “% Antagonism Alpha 2B” value on mouse alpha2B receptor (HEK 293 cells, G16) is 93%.

For `CN1CCc2c(C#N)c(N)n(C)c(=S)c2C1` [Example 5, 3-amino-2,7-dimethyl-1-thioxo-1,2,5,6,7,8-hexahydro-2,7-naphthyridine-4-carbonitrile], at human alpha 2A receptor, the IC50 came out at 1990 nM and the “% Antagonism Alpha 2A” value is listed as 69%. Further, in assay [1], the IC50 was over 8300 nM and the “% Antagonism Alpha 1B” value is given as 0%. For the same molecule, the “% Antagonism Alpha 2C” value on human alpha 2C receptor is listed as “nd (25) %”. For the same molecule, the “block of allodynia reversal by 4-Cyclopent-3-enylmethyl-1,3-dihydro-imidazole-2-thione” value in the assay with mechanical allodynia was “completely blocks”. Besides, the “% Antagonism Alpha 1A” value in assay [2] is on record as “nd (64) %”. In addition, the IC50 against mouse alpha2B receptor was determined as 10 nM. Moreover, the “% Antagonism Alpha 2B” value at mouse alpha2B receptor (HEK 293 cells, G16) is 95%.

For the molecule `CN1CCc2c(C#N)c(N)n(N)c(=S)c2C1` [Example 6, 2,3-diamino-4-cyano-7-methyl-(1,2,5,6,7,8-hexahydro-2,7-napthyridine-1-thione)], the “% Antagonism Alpha 2A” value on human alpha 2A receptor is reported as “nd (36) %”. Moreover, the IC50 in assay [1] (antagonism of norepinephrine calcium signal, read-out: IC50 Alpha 1B) is over 7500 nM; on human alpha 2C receptor (antagonism of norepinephrine calcium signal), 1410 nM; in assay [2] (antagonism of norepinephrine calcium signal, read-out: IC50 Alpha 1A) it was over 7500 nM; at mouse alpha2B receptor (setting [3]), 204 nM. Also, the “% Antagonism Alpha 1B” value in assay [1] came to 19%. For the same molecule, the “% Antagonism Alpha 2C” value at human alpha 2C receptor is recorded as 29%. Also, the “% Antagonism Alpha 1A” value in assay [2] was 19%. Besides, at mouse alpha2B receptor (HEK 293 cells, G16), the “% Antagonism Alpha 2B” value turned out to be 112%.

In the case of `CN1Cc2c(c(C#N)c(N)n(N)c2=S)CC1(C)C` [Example 7, 2,3-diamino-4-cyano-6,6,7-trimethyl-(1,2,5,6,7,8-hexahydro-2,7-napthyridine-1-thione)], at human alpha 2A receptor, the IC50 is over 7500 nM and the “% Antagonism Alpha 2A” value is 0%. In assay [1], the IC50 was over 7500 nM and the “% Antagonism Alpha 1B” value is 16%. Further, the “% Antagonism Alpha 2C” value at human alpha 2C receptor is on record as “nd (17) %”. In addition, in assay [2], the IC50 worked out at 382 nM and the “% Antagonism Alpha 1A” value turned out to be 98%. In addition, the IC50 against mouse alpha2B receptor worked out at 29 nM. On mouse alpha2B receptor (HEK 293 cells, G16), the “% Antagonism Alpha 2B” value is recorded as 97%.

`CCn1c(N)c(C#N)c2c(c1=S)CN(C)CC2` [Example 8, 3-Amino-2-ethyl-4-cyano-7-methyl-(1,2,5,6,7,8-hexahydro-2,7-napthyridine-1-thione)]: at mouse alpha2B receptor (setting [3]), the IC50 was determined as 473 nM. Moreover, the “% Antagonism Alpha 2B” value at mouse alpha2B receptor (HEK 293 cells, G16) is listed as 95%.

Take `CN1CCc2c(C#N)c(N)n(C)c(=O)c2C1` [Example 9, 3-Amino-2-methyl-4-cyano-7-methyl-(1,2,5,6,7,8-hexahydro-2,7-napthyridine-1-ketone)]: the IC50 at mouse alpha2B receptor (setting [3]) came out at 1170 nM. Besides, the “% Antagonism Alpha 2B” value on mouse alpha2B receptor (HEK 293 cells, G16) turned out to be 88%.
